Results reported in US20240301409A1, “Chemically Modified Small Activating RNA” (RACTIGEN THERAPEUTICS, priority 2021, published 2024).
Where two headings read alike, the source gives them in different places. Oligonucleotides are written 5' to 3', each unit as a sugar letter and its base; * is a phosphorothioate linkage, no mark a phosphodiester; rarer units and linkages stand in square brackets, end groups in braces. Plain capitals give the bases only. r = 2'-OH (RNA); f = 2'-fluoro

Assays:
[1] = test system: Rag1-40 target sequence in the 3′ UTR of firefly luciferase, COS-1 cells; assay: Analysis of off-target effects (pOff-Target dual luciferase reporter in COS-1 cells); conditions: lysed 48 hours after transfection, luciferase activity
Experimental: (§1) A 26 bp fragment comprising the target site of Rag1-40 was cloned in the antisense orientation into the 3′ UTR region of the firefly luciferase gene in a pmirGLO dual luciferase vector. Vector plasmids were co-transfected with the indicated saRNAs into COS-1 cells. Cells were lysed 48 hours after transfection, and the resulting lysates were assessed for luciferase activity. Data represent mean±SD of at least two independent experiments. Dashed line represents comparisons to blank control (top dashed line) and Rag1-40 (bottom dashed line). Values close to the top dashed line indicate no off-target effect.
(§2) A 26 bp fragment comprising the Rag1-40 target sequence was cloned in the antisense orientation into a multiple cloning site (MCS) of the 3′ untranslated region of firefly luciferase of the pmirGLO dual luciferase vector (Promega, Fitchburg, WI), to obtain pOff-Target plasmid. Following E. coli transformation and overnight incubation, plasmids for each construct were prepared by standard method. Each plasmid was transfected into COS-1 monkey kidney epithelial cells using Lipofectamine 3000 (Invitrogen, Carlsbad, CA). Subsequently, saRNA was transfected using RNAiMAX. After 24 hours of incubation, COS-1 cells were lysed with 1× lysis buffer, and luciferase activity was measured using dual luciferase reporter gene assay system (Promega, WI, USA) following manufacturer's instructions.
(§3) To assess the off-target effects of unmodified and modified saRNAs, a sequence complementary to the sense oligonucleotide strand of Rag1-40 was cloned into the 3′UTR region of the luciferase gene in a pmirGLO dual luciferase vector. The vector plasmid was co-transfected with the saRNA into COS-1 cells. Cells were lysed 48 hours after transfection and the resulting lysates were assessed for luciferase activity.

[2] = test system: Rag1-40 target sequence in the 3′ UTR of firefly luciferase, COS-1 cells
Experimental: as §1, §2, §3

RNase A = molecular target: T1, RNase A (Bos taurus, UniProt P61823)
T1 sequence (P61823 27-150): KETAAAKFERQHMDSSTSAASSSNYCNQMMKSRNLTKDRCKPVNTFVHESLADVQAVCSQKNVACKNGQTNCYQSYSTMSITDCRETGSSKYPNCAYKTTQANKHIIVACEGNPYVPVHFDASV
Experimental: The duplexes obtained at each time point above were each added to 1 μL of 10× loading buffer, and then frozen in liquid nitrogen. After incubation, all samples were detected for the double-stranded RNA by 4% agarose gel electrophoresis, and the content of each duplex was analyzed by Image J software.
The duplexes obtained at each time point indicated above were each added to 1 μL of 10× loading buffer, and then frozen in liquid nitrogen. After incubation, all samples were detected for the double-stranded RNA by 4% agarose gel electrophoresis, and the content of each duplex was analyzed by Image J software.
saRNA (1.5 μL, 10 μM) was incubated at a final concentration of 0.02 mg/mL in PBS in the presence of RNase A (Amresco, OH, USA) at 37° C. for different durations. At the end of the incubation, the mixture was snap frozen in liquid nitrogen to stop nuclease activity. Samples were analyzed on a 4% agarose gel and examined for duplex degradation.
All chemically modified duplexes (Rag1-40-1 to Rag1-40-32) were incubated with 0.02 μg/L of RNase A for different durations (0 to 96 hours). At the end of the incubation, the size and amount of duplexes were detected by agarose gel electrophoresis.

Substance	off-target effect compared to unmodified Rag1-40, in words [1]	off-target effect compared to unmodified Rag1-40, in words [2]	degradation of duplex at 96 hours (RNase A)	time to complete degradation (RNase A) [h]
Rag1-40-21: saRNA duplex: sense mCmCAACUCAUUCUCCAAG*U*C (SEQ ID NO 15); antisense UACUfUGGAGAAfUGAGUfUGG*fC*A (SEQ ID NO 10) (sense CCAACUCAUUCUCCAAGUC; antisense UACUUGGAGAAUGAGUUGGCA; 2'-OMe, 2'-F, phosphorothioates; modified_base (1)..(2) (1,2)=2′-O-methyl(2′-OMe); modified_base (17)..(19) (17,18,19)=phosphorothioate (PS) backbone modification; modified_base (5)..(20) (5,12,17,20)=2′-fluoro; modified_base (19)..(21) (19,20,21)=phosphorothioate (PS) backbone modification)	mitigated or similar off-target effects			
Rag1-40-22: saRNA duplex: sense mCmCAACUCAUUCUCCAAG*U*C (SEQ ID NO 15); antisense fU*A*fCfUfUGGAGAAfUGAGfUfUGG*fC*A (SEQ ID NO 11) (sense CCAACUCAUUCUCCAAGUC; antisense UACUUGGAGAAUGAGUUGGCA; 2'-OMe, 2'-F, phosphorothioate modifications; modified_base (1)..(2) (1,2)=2′-O-methyl(2′-OMe); modified_base (17)..(19) (17,18,19)=phosphorothioate (PS) backbone modification; modified_base (1)..(21) (1,2,3,19,20,21)=phosphorothioate (PS) backbone modification; modified_base (1)..(20) (1,3,4,5,12,16,17,20)=2′-fluoro)		completely inhibited	little or no signs of degradation	
Rag1-40-23: saRNA duplex: sense mCmCAACUCAUUCUCCAAG*U*C (SEQ ID NO 15); antisense U*A*fCfUfUGGAGAAfUGAGfUfUGG*fC*A (SEQ ID NO 12) (sense CCAACUCAUUCUCCAAGUC; antisense UACUUGGAGAAUGAGUUGGCA; 2'-OMe, 2'-F, phosphorothioate modifications; modified_base (1)..(2) (1,2)=2′-O-methyl(2′-OMe); modified_base (17)..(19) (17,18,19)=phosphorothioate (PS) backbone modification; modified_base (2)..(21) (2,3,19,20,21)=phosphorothioate (PS) backbone modification; modified_base (3)..(20) (3,4,5,12,16,17,20)=2′-fluoro)		mitigated or similar off-target effects	little or no signs of degradation	
Rag1-40-26: saRNA duplex: sense fCfCAACUCAUUCUCCAAG*U*C (SEQ ID NO 16); antisense fUACUfUGGAGAAfUGAGUfUGGfCA (SEQ ID NO 7) (sense fCfCrArArCrUrCrArUrUrCrUrCrCrArArG*rU*rC; antisense fUrArCrUfUrGrGrArGrArAfUrGrArGrUfUrGrGfCrA)		increased off-target effects		≤ 24
Rag1-40-28: saRNA duplex: sense fCfCAACUCAUUCUCCAAG*U*C (SEQ ID NO 16); antisense fUACUfUGGAGAAfUGAGUfUGG*fC*A (SEQ ID NO 9) (sense fCfCrArArCrUrCrArUrUrCrUrCrCrArArG*rU*rC; antisense fUrArCrUfUrGrGrArGrArAfUrGrArGrUfUrGrG*fC*rA)		mitigated or similar off-target effects		≤ 24
Rag1-40-30: saRNA duplex: sense fCfCAACUCAUUCUCCAAG*U*C (SEQ ID NO 16); antisense fU*A*fCfUfUGGAGAAfUGAGfUfUGG*fC*A (SEQ ID NO 11) (sense fCfCrArArCrUrCrArUrUrCrUrCrCrArArG*rU*rC; antisense fU*rA*fCfUfUrGrGrArGrArAfUrGrArGfUfUrGrG*fC*rA)		mitigated or similar off-target effects	little or no signs of degradation	
